The values below come from US8501911B2, “Methods of reducing inflammation and mucus hypersecretion” (Biomarck Pharmaceuticals, Ltd, priority 1999, dated 2013).

For experiment [1], the system named is MARCKS-related mucus secretion. Kind of experiment: Inhibition of MARCKS-related mucus (mucin) secretion, Table 1. In kind it is cell-based. The note with it: at 100 μM of test peptide.
For another experiment, the system named is NK-92 cells. Kind of experiment: Inhibition of release of granzyme from NK-92 cells. Format: cell-based, human. The note with it: for % Inhibition Granzyme: at 50 μM of test peptide. The procedure:
Measurement of NK cell granzyme secretion: Granzyme secreted from NK-92 cells was assayed by measuring hydrolysis of Nα-benzyloxycarbonyl-L-lysine thiobenzyl ester (BLT, EMD Bioscience, Inc.) essentially as described previously (Takayama H. Trenn G, Sitkovsky M V. A novel cytotoxic T lymphocyte activation assay. J. Immunol. Methods 104:183-190, 1987). An aliquot of 50 μl of supernatant was transferred to a 96-well plate, and 150 μl of 0.2 mM solution of BLT and 0.22 mM DTNB (Sigma-Aldrich Co.) in phosphate-buffered saline (PBS, pH 7.2) was added to the supernatant. Absorbance at 410 nm was measured after incubation for 30 min at room temperature. Results were expressed as percentage of total cellular enzyme content, using the amount obtained in the same number of triton X-100-lysed cells.
Because standard granzyme from NK-92 cells was not available to use for quantification, we measured both released and intracellular (from lysed cells) levels of granzyme, and expressed the released granzyme as a percentage of total (intracellular and released) for each. To measure intracellular granzyme from NK-92 cells, appropriate aliquots of 0.1% triton X-100-lysed cells were taken for quantification of the enzyme as described above. All data are expressed as percentage of control to minimize variability between cultures.

For experiment [2], the system named is LPS-induced lung inflammation. Format: in vivo, mouse. The note with it: for Hb / MPO / LDH / Total Protein: BAL fluid; for % Inhibition of MPO: mouse, in vivo; for % Inhibition of neutrophil migration: relative to PBS/LPS treatment. The method, then: Thus, six to seven week old CD1 female mice weighing 15-20 grams were obtained from Charles River laboratories and housed in groups of 5 mice per cage. The animals received standard rodent diet and filtered water ad libitum. The animals were housed under NIH prescribed guidelines at standard temperature (64° to 79° F.) and relative humidity of 30 to 70%.
Four treatment groups of mice, with 5 animals in each group, were treated either with PBS followed by PBS, with PBS followed by LPS, with (myristoylated) MANS peptide followed by LPS, or with peptide of SEQ ID NO: 15 (MA-GAQFSKTAAK) followed by LPS.
Intranasal peptide instillation pre-treatment: A peptide of the invention to be evaluated in vivo for its ability to inhibit or reduce LPS-induced lung inflammation was dissolved in PBS at a concentration of 1 mM. Animals, anesthetized with 0.8% isofluorane by inhalation, were pretreated with 2×10 μl intranasal bolus of the peptide solution into one nostril 30 minutes prior to subsequent instillation with LPS.
Intranasal LPS instillation: Lipopolysaccharide (LPS) Endotoxin (Escherichia coli Serotype 011:B4 derived endotoxin; Sigma, St Louis, Mo.; see Sigma product information sheet L4130 titled Lipopolysaccharides from Escherichia coli 011:B4) was dissolved into phosphate buffered saline (PBS) at 2,500 μg/mL. To expose animals to endotoxin, a 10 μL intranasal bolus of 2,500 μg/ml endotoxin solution was administered to animals which had been anesthetized with 0.8% isofluorane by inhalation. The 10 μL bolus was applied into one nostril. Animals were monitored for labored breathing, lethargy, and decreased water/food intake following the endotoxin instillations.
Bronchoalveolar Lavage (BAL): Six hours after the last instillation, the animals were anesthetized (90 mg/kg Nembutal) and sacrificed by exsanguination. The lung was serially lavaged 2 times with 1.0 mL aliquots of PBS. The collected BAL fluid was centrifuged to remove the cells for subsequent counting and differential analysis. Recovered lavage fluid was used for analysis of total protein, myeloperoxidase (MPO), LDH, and hemoglobin.
Analysis: Aliquots of the BAL fluid were used immediately to assay for the levels of LDH, total protein, or hemoglobin (Hb) using the COBAS Fara analyzer (COBAS FARA II automated analyzer; Roche Diagnostic Systems Inc., Montclair, N.J.). An aliquot of BAL fluid was frozen at −80° C. for subsequent quantitation of myeloperoxidase (MPO) with a mouse-specific ELISA assay (Cell Sciences, Inc., Canton, Mass.). BAL data were analyzed by standard techniques to examine differences between the control and treatment groups.

Another experiment relates to human neutrophils. The experiment can be described thus: MPO secretion from isolated human neutrophils stimulated with PMA+8-Br-cGMP. Format: cell-based. The method, then:
MPO Colorimetric Enzyme Assay—Samples were assayed for MPO activity in 96 well round bottom microtiter plates using a sandwich ELISA kit (R & D Systems, Minneapolis, Minn.). Briefly, 20 microliters of sample is mixed with 180 microliters of substrate mixture containing 33 mM potassium phosphate, pH 6.0, […], 0.11 mM hydrogen peroxide, and 0.36 mM O-Diannisidine Dihydrochloride in an individual microtiter well. The final concentrations in the assay mixture are: 30 mM potassium phosphate, pH 6.0, 0.05% Triton X-100, 0.1 mM hydrogen peroxide, and 0.32 mM O-Diannisidine Dihydrochloride. […] Samples were assayed in duplicate.

Where [3] appears, read: peptide 1 μM + 100 nM PMA+10 μM 8-Br-cGMP, unstimulated control 0.076.
The mark [4] stands for this setting: peptide 10 μM + 100 nM PMA+10 μM 8-Br-cGMP.
[5] abbreviates: peptide 100 μM + 100 nM PMA+10 μM 8-Br-cGMP.

Where two headings read alike, the source gives them in different places. Residues, ends and D or L forms follow the SMILES beside them. *: point of attachment. Myristoyl = CCCCCCCCCCCCCC(=O)*

Take `CCCCCCCCCCCCCC(=O)NCC(=O)N[C@@H](C)C(=O)N[C@@H](CCC(N)=O)C(=O)N[C@@H](Cc1ccccc1)C(=O)N[C@@H](CO)C(=O)N[C@@H](CCCCN)C(=O)N[C@H](C(=O)N[C@@H](C)C(=O)N[C@@H](C)C(=O)N[C@@H](CCCCN)C(=O)NCC(=O)N[C@@H](CCC(=O)O)C(=O)O)[C@@H](C)O` [SEQ ID NO: 13, N-myristoyl-GAQFSKTAAKGE] (Myristoyl-GAQFSKTAAKGE-OH; C-terminus assumed): the “% Inhibition Mucin” value in experiment [1] is reported as 77%.
Take `CCCCCCCCCCCCCC(=O)O[C@@H]1[C@@H](C)[C@@]2(O)[C@@H](C=C(CO)C[C@]3(O)C(=O)C(C)=C[C@@H]23)[C@@H]2C(C)(C)[C@]12OC(C)=O` [PMA, phorbol 12-myristate 13-acetate]: in the experiment with NK-92 cells (100 nM PMA, 2 hour incubation), the “Granzyme secretion relative to control as 100%” value is “about 220%”.
`CCCCCCCCCCCCCC(=O)NCC(=O)N[C@@H](C)C(=O)N[C@@H](CCC(N)=O)C(=O)N[C@@H](Cc1ccccc1)C(=O)N[C@@H](CO)C(=O)N[C@@H](CCCCN)C(=O)N[C@H](C(=O)N[C@@H](C)C(=O)N[C@@H](C)C(=O)N[C@@H](CCCCN)C(=O)NCC(=O)N[C@@H](CCC(=O)O)C(=O)N[C@@H](C)C(=O)N[C@@H](C)C(=O)N[C@@H](C)C(=O)N[C@@H](CCC(=O)O)C(=O)N[C@@H](CCCNC(=N)N)C(=O)N1CCC[C@H]1C(=O)NCC(=O)N[C@@H](CCC(=O)O)C(=O)N[C@@H](C)C(=O)N[C@@H](C)C(=O)N[C@H](C(=O)N[C@@H](C)C(=O)O)C(C)C)[C@@H](C)O` [MANS peptide] (Myristoyl-GAQFSKTAAKGEAAAERPGEAAVA-OH; C-terminus assumed): the Total cells counted in experiment [2] (BAL 6 h after LPS, intranasal 2×10 μl of 1 mM peptide 30 min before LPS, Table 3 (PBS/LPS 264,200)) is 208,457. In addition, the Hb in experiment [2] (Table 3 (PBS/LPS 0.19)) turned out to be 0.05 g/dL. For the same compound, the MPO in experiment [2] (Table 3 (PBS/LPS 28.98)) is on record as 9.49 ng/mL. In experiment [2] (Table 3 (PBS/LPS 60.40)), this compound gave an LDH of 68.57 units/L. Also, in experiment [2] (Table 3 (PBS/LPS 272.40)), the “Total Protein” value came out at 175.00 µg/mL. In addition, in experiment [2] (Table 3 (PBS/LPS 41.7)), the “% Neutrophils of total cells” value was 30.9%. Also, the Total neutrophils counted in experiment [2] (Table 3 (PBS/LPS 110,061)) is recorded as 64,481. Further, in experiment [2], the “% Inhibition of MPO” value was 67.2%. For the same compound, in experiment [2], the “% Inhibition of neutrophil migration” value is listed as 41.4%. In addition, the “Absorbance at 450 nm (MPO secretion)” value with human neutrophils (setting [3]) is 0.102; in the experiment on human neutrophils (setting [4]) it was 0.093; in the experiment with human neutrophils (setting [5]), 0.068. Moreover, in experiment [1], the “% Inhibition Mucin” value came to 81.5%. Also, in the experiment with NK-92 cells (100 μM peptide, 100 nM PMA 2 hour), the “Reduction in granzyme secretion relative to the PMA control reference” value was “about 60%”. For the same compound, the “% Inhibition Granzyme” value with NK-92 cells came to 76.0%.
Consider `CCCCCCCCCCCCCC(=O)NCC(=O)N[C@H](C(=O)N[C@@H](C)C(=O)N1CCC[C@H]1C(=O)N[C@@H](C)C(=O)N[C@@H](C)C(=O)N[C@@H](CCC(=O)O)C(=O)NCC(=O)N[C@@H](C)C(=O)NCC(=O)N[C@@H](C)C(=O)N[C@@H](CCC(=O)O)C(=O)N[C@H](C(=O)N[C@@H](CCCCN)C(=O)N[C@@H](CCCNC(=N)N)C(=O)N[C@@H](C)C(=O)N[C@@H](CO)C(=O)N[C@@H](C)C(=O)N[C@@H](CCC(=O)O)C(=O)N[C@@H](C)C(=O)N[C@@H](CCCCN)C(=O)N[C@@H](CCC(N)=O)C(=O)N[C@@H](C)C(=O)N[C@@H](Cc1ccccc1)C(=O)O)C(C)C)[C@@H](C)O` [RNS peptide, reference compound] (Myristoyl-GTAPAAEGAGAEVKRASAEAKQAF-OH; C-terminus assumed), for which the “Absorbance at 450 nm (MPO secretion)” value in the experiment with human neutrophils (setting [3]) was 0.099; in the experiment on human neutrophils (setting [4]), 0.100; in the experiment on human neutrophils (setting [5]), 0.100. The “% Inhibition Mucin” value in experiment [1] was 0%. Moreover, in the experiment on NK-92 cells (any of the time points or concentrations tested), the “Effect on PMA-enhanced granzyme secretion” value was “did not affect”. Further, in the experiment with NK-92 cells, the “% Inhibition Granzyme” value turned out to be 29.5%.
For the compound `CCCCCCCCCCCCCC(=O)NCC(=O)N[C@@H](C)C(=O)N[C@@H](CCC(N)=O)C(=O)N[C@@H](Cc1ccccc1)C(=O)N[C@@H](CO)C(=O)N[C@@H](CCCCN)C(=O)N[C@H](C(=O)N[C@@H](C)C(=O)N[C@@H](C)C(=O)N[C@@H](CCCCN)C(=O)O)[C@@H](C)O` [SEQ ID NO: 15, N-myristoyl-GAQFSKTAAK] (Myristoyl-GAQFSKTAAK-OH; C-terminus assumed), the “Total Cell Counts” value in experiment [2] (BAL 6 h after LPS, intranasal peptide 30 min before LPS, Table 4 (PBS/LPS 422,300)) is reported as 628,075. The Hb in experiment [2] (Table 4 (PBS/LPS 0.01)) was determined as 0.01 g/dL. The compound further returned an MPO in experiment [2] (Table 4 (PBS/LPS 17.33)) of 0.79 ng/mL. The compound also showed an LDH in experiment [2] (Table 4 (PBS/LPS 107.80)) of 110.75 units/L. In addition, the “Total Protein” value in experiment [2] (Table 4 (PBS/LPS 157.40)) turned out to be 120.25 µg/mL. For the same compound, in experiment [2] (Table 4 (PBS/LPS 28.2)), the “% Neutrophils of total counts” value was determined as 6.1%. Besides, the “Total Neutrophil counts” value in experiment [2] (Table 4 (PBS/LPS 119,114)) is reported as 38,548. Also, in experiment [2], the “% Inhibition of MPO” value is 95.4% and the “% Inhibition of neutrophil migration” value came out at 67.6%. In addition, the “% Inhibition Mucin” value in experiment [1] amounted to 67.5%.
